Like-named read-outs stand apart in the source and are kept apart here.
Legend:
[1] = tested on: KAT-II; conditions: published KAT-II inhibitors, Figure 2; cited from earlier work
[2] = biological target: T1, hKAT-II (Homo sapiens, UniProt Q8N5Z0); assay: Coupled fluorescence in vitro inhibition assay of hKAT-II; assay type: biochemical; conditions: for Inhibitory Activity [%I ± SEM] c = 1 µM: 30 min pre-incubation with enzyme, mean ± SEM
T1 construct: hexahistidine tag (N); made in house; host or cells: E. coli BL21(DE3)-RIL
Method: The inhibitory activity of amino ketones 11 and 12 was evaluated using a fluorimetric in vitro assay. The activity was determined as the percentage of inhibition (%I) at a concentration of 1 µmol/L and also as IC50 values (Table 1). The observed inhibitory activity confirmed the validity of the computational model and was suitable to conduct a synthesis-directed SAR study around the predicted heterocyclic α-amino ketone structure.
The nucleotide sequence encoding hKAT-II gene was constructed by Invitrogen, Thermo Fisher Scientific. The hKAT-II gene, optimized for heterologous expression in E. coli, was cloned into a pET15b vector using NdeI-XhoI. The hKAT-II protein, carrying an N-terminal hexahistidine tag, was produced in E.coli BL21(DE3)-RIL cells for 4 h at 37 °C. The bacterial cells were then harvested and disintegrated using One-Shot. […] (25.000× g, 30 min) centrifugation cleared cell lysate containing hKAT-II was loaded on the top of a HisTrap Fast Flow column (Cytiva) equilibrated in loading buffer (40 mM Tris, pH 8; 1000 mM NaCl, 40 µM PLP, 5 mM MgCl2, 20 mM imidazole). Following elution of the bound proteins by the loading buffer containing 600 mM imidazole, purified hKAT-II was dialyzed into a storage buffer (20 mM Hepes pH 7.5; 50 mM NaCl, 70 µM PLP, 10% glycerol), concentrated to 1.0–1.5 mg/mL, aliquoted, and stored at −80 °C.
hKAT-II activity was measured using a fluorescence assay utilizing L-α-aminoadipic acid (AAD) and α-ketoglutarate as the substrates as previously described. The assay medium (100 µL) consisted of 0.75 µM of hKAT-II, 0.3 mM of AAD, 50 µM α-ketoglutarate, 3 mM NAD^+, 88 µg/mL of glutamic dehydrogenase, and 5 µM pyridoxal phosphate (PLP) in a 0.1 M phosphate buffer pH 7.5. The activity of the enzyme was assessed on a Spark multiple mode reader (Tecan Group Ltd., Männedorf, Switzerland) with an excitation wavelength of 340 nm and emission wavelength of 390 nm at 37 °C. The plate was shaken for 20 s before reading. The kinetic interval was set at 30 s between each reading, and data were collected for 30 min. The activity of the enzyme was assayed in pentaplicate in each measurement (n = 3). Kinetic data were then collected over a period of 30 min, and the linear part of the initial velocity was used to calculate the enzyme activity expressed as the slope of the linearized curve via the linear regression function (Excel, Microsoft, USA).
The inhibitory activity of the tested compounds was determined via 30 min pre-incubation with the enzyme at various concentrations of the inhibitor at room temperature in a 0.1 M phosphate buffer pH 7.5 with 5 µM PLP. The enzyme reaction was initiated by the addition of a substrate and cofactors. The final mixture contained 20 nM of hKAT-II, 0.3 mM of AAD, 50 µM α-ketoglutarate, 3 mM NAD^+, and 88 µg/mL of glutamic dehydrogenase. Kinetic data were collected over a period of 30 min, and the slope of the linearized curve was calculated as above. The inhibitory activity in %I at a given concentration was calculated for novel compounds using the following equation:(1) Inhibition [%I]=(V0− Vi/V0)×100, where V0 and Vi are the activity of the enzyme in the absence and presence of the inhibitor, respectively. All the data were obtained in pentaplicate for each measurement (n = 3). Alternatively, the IC50 values for selected novel compounds were assessed. GraphPad Prism 8 software (San Diego, USA) was used for the IC50 value calculation using non-linear regression (four parameters). […]

T1 sequence (Q8N5Z0 30-425): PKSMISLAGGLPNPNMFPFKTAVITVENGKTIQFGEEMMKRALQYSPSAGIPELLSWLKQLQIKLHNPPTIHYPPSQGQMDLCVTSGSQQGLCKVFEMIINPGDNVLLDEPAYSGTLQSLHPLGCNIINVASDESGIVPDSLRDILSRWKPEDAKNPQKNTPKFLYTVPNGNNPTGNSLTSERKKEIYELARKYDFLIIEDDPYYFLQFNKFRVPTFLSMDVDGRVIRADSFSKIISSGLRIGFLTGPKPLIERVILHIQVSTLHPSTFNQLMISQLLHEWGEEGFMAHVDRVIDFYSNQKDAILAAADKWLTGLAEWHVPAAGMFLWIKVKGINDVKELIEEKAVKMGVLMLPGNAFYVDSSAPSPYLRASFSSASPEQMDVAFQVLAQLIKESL

SMILES | IC50 [1] [nM] | Inhibitory Activity [%I ± SEM] c = 1 µM ([2]; 20 nM hKAT-II) [%I] | melting point | further results
CCS(=O)(=O)c1ccc(C(=O)C[C@H](N)C(=O)O)cc1 [Compound 1, (S)-ESBA] | 71000 |  |  | 
C[C@H]1COc2c(N3CCN(N)CC3)c(F)cc3c(=O)c(C(=O)O)cn1c23 [Compound 2, BFF-122] | 1000 |  |  | 
N[C@H]1Cc2cn(-c3ccccc3)nc2N(O)C1=O [Compound 4] | 25 |  |  | 
O=C1NC(=O)/C(=C/c2cccc(-c3ccc4c5c3CCC(=O)N5CC4)c2)S1 [Compound 5, BFF-816] | 13400 |  |  | 
CC1(C)[C@@H](O)CC[C@]2(C)[C@H]3C(=O)C=C4[C@@H]5C[C@@](C)(C(=O)O)CC[C@]5(C)CC[C@@]4(C)[C@]3(C)CC[C@@H]12 [Compound 6, glycyrrhetinic acid] | 7000 |  |  | 
NS(=O)(=O)c1ccc(N2C(=O)c3cc(Cl)c(Cl)cc3C2=O)cc1 [Compound 7] | 73800 |  |  | 
Cn1c(CN2CCOCC2)nc2sc([C@H]3CCCN3C(=O)OCc3ccccc3)nc2c1=O [Compound 8] | 610 |  |  | 
CC(C)[C@@H](Cc1nnc(NS(=O)(=O)c2cc(F)cc(F)c2)s1)c1cccc(F)c1 [Compound 9] | 880 |  |  | 
Cc1ccc(NC(=O)N2CCCC3(CCC(=O)N(CCC(C)C)C3)C2)cc1Cl (stereo not drawn) [Compound 10] | 810 |  |  | 
CC[C@H](N)C(=O)c1cn(-c2ccc(F)cc2)nn1.Cl [Compound 32c] |  | 35.94 ± 2.87 | > 182 °C (dec.) | 
C[C@H](N)C(=O)c1nc2ccccc2s1.Cl [Compound 34a] |  | 52.49 ± 1.31 | > 156 °C (dec.) | 
C[C@H](N)C(=O)c1nc2ccc(F)cc2s1 [Compound 34b] |  | 56.60 ± 3.68 | > 152 °C (dec.) | IC50 [2]: 987 ± 88 nM
CC[C@H](N)C(=O)c1nc2ccccc2s1.Cl [Compound 34c] |  | 36.16 ± 3.81 | > 140 °C (dec.) | 
CC[C@H](N)C(=O)c1nc2ccc(F)cc2s1.Cl [Compound 34d] |  | 9.73 ± 1.41 | > 145 °C (dec.) | 
CC[C@H](N)C(=O)c1ncc(-c2ccc(F)cc2)s1 [Compound 49b] |  | 57.07 ± 0.31 | > 150 °C (dec.) | 
C[C@H](N)C(=O)c1ncc(-c2ccc(F)cc2Cl)s1.Cl [Compound 49c] |  | 47.65 ± 1.71 | 127 to 134 °C (dec.) | 
CC[C@H](N)C(=O)c1ncc(-c2ccc(F)cc2Cl)s1.Cl [Compound 49d] |  | 59.71 ± 0.97 | > 134 °C (dec.) | IC50 ([2]; 30 min pre-incubation, 20 nM hKAT-II, non-linear regression (four parameters), read-out: IC50 ± SEM): 304 ± 39 nM

— publication PMC8708382, “Heterocyclic Cathinones as Inhibitors of Kynurenine Aminotransferase II—Design, Synthesis, and Evaluation” (Pharmaceuticals, 2021)
